{
  "source": "paper PMC9440028",
  "about": "“Neurotensin analogs by fluoroglycosylation at N^ω-carbamoylated arginines for PET imaging of NTS1-positive tumors” (Scientific Reports, 2022)",
  "key": {"[1]": {"target": "T1, hNTS1R (Homo sapiens, UniProt P30989)", "T1 construct": "at hNTS1R expressing intact human HT-29 colon carcinoma cells; endogenous in cells; host or cells: HT-29 human colon carcinoma cells (intact)", "T1 sequence (P30989 whole entry)": "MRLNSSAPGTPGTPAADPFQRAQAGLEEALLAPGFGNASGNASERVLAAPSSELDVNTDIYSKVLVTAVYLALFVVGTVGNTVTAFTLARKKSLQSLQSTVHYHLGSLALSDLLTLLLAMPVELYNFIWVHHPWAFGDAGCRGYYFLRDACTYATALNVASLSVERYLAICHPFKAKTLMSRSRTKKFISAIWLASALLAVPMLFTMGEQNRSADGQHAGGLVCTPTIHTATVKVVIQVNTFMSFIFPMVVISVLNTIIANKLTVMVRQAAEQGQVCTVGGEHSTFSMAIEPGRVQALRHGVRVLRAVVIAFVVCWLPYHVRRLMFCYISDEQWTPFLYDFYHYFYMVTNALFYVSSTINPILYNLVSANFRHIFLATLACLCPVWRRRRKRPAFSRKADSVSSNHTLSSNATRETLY", "assay": "Radioligand competition binding with [^3H]UR-MK300 at intact HT-29 cells", "conditions": "[^3H]UR-MK300 (Kd = […], c = 1 nM), 23 °C", "procedure": "Unspecific binding was subtracted from total binding to obtain specific binding. Data analysis was performed by plotting % specifically bound radioligand (100% = specifically bound radioligand in the absence of competitor) over log(concentration of competitor) followed by a four-parameter logistic fit (SigmaPlot 12.5, Systat Software). […] The Ki values from individual experiments were transformed to pKi values, followed by the calculation of mean pKi values ± SEM."}, "[2]": {"assay": "In vitro stability in human plasma/PBS (1:2 v/v) at 37 °C", "type": "in vitro ADME", "conditions": "human blood plasma/PBS (1:2 v/v), read-out: % intact peptide in human plasma after the given incubation time", "procedure": "(§1) The metabolic stabilities of 11–14, 16 and 18–21 (cf. Table 2) were investigated in human blood plasma/PBS (136.9 mM NaCl, 2.68 mM KCl, 5.62 mM Na2HPO4, 1.09 mM NaH2PO4 and 1.47 mM KH2PO4) pH 7.4 (1:2, v/v) according to a described procedure[13] with the following modifications: 5 mM stock solutions in EtOH/0.04% aq TFA (30:70 v/v) (11–13), MeCN/0.025% aq TFA (30:70 v/v) (14), MeCN/0.04% aq TFA (30:70 v/v) (16, 19 and 21) or EtOH/H2O (40:60 v/v) (18, 20) were used for the addition of the peptides to plasma/PBS (1:2 v/v). As the RP-HPLC purity of 1-Methyl-D-Trp (internal standard, IS) was < 95% (data not shown), the compound was purified by preparative HPLC to give a purity of > 99%. The concentration of the peptides in plasma/PBS (1:2 v/v) was 80 and 4 µM (recovery determination) or 100 µM (stability tests). The obtained recoveries and the recovery ratios (peptide/internal standard) are summarized in Supplementary Table S1. Data analysis was based on UV detection at 220 nm. Additionally, the stability of compound 21 was investigated in mouse plasma/PBS (1:2 v/v) using the same procedure as described above for human plasma. Mouse plasma was obtained by the collection of blood from anaesthetized mice via cardiac puncture using a syringe that was rinsed with sodium heparin (25,000 I.E., Ratiopharm, Ulm, Germany). The heparinized blood was transferred into a 2-mL reaction vessel, followed by centrifugation (1200 g, 4 °C, 10 min). The supernatants were pooled, centrifuged again (1200 g, 4 °C, 10 min), the plasma was aliquoted and stored at − 80 °C. The concentration of 21 in plasma/PBS (1:2 v/v) was 80 and 4 μM (recovery determination) or 100 μM (stability tests). The obtained recoveries and the recovery ratios (21/IS) are summarized in Supplementary Table S2. Data analysis was based on UV detection at 220 nm."}, "[3]": {"assay": "In vitro stability in mouse plasma/PBS (1:2 v/v) at 37 °C", "type": "in vitro ADME", "conditions": "read-out: % intact peptide in mouse plasma after the given incubation time", "procedure": "as §1"}},
  "note": "Where two headings read alike, the source gives them in different places.",
  "data": [
    {"smiles": "CN[C@@H](CCCNC(=N)NC(=O)NCCCCNC(=O)CCc1cn([C@@H]2O[C@H](CF)[C@@H](O)[C@H](O)[C@H]2O)nn1)C(=O)N[C@@H](CCCNC(=N)N)C(=O)N1CCC[C@H]1C(=O)N[C@@H](Cc1ccc(O)cc1)C(=O)N[C@H](C(=O)N[C@@H](CC(C)C)C(=O)O)C(C)(C)C", "note": "[Compound 21, N^α-methyl-(N^ω-{N-[4-(3-{1-[6-deoxy-6-fluoro-β-D-glucopyranosyl]-1H-1,2,3-triazol-4-yl}propanoyl)aminobutyl]aminocarbonyl})Arg-Arg-Pro-Tyr-2-tert-butyl-Gly-Leu-OH tris(hydrotrifluoroacetate)]", "values": [
      {"measurement": "Ki", "setting": "[1]; mean", "result": "one-digit nanomolar range"},
      {"measurement": "Ki", "setting": "[1]; mean, read-out: Ki (converted)", "result": 4.3, "unit": "nM"},
      {"measurement": "Ki", "setting": "[1]; read-out: pKi ± SEM (converted)", "result": 4.07, "unit": "nM"},
      {"measurement": "remaining at 1 h, 100 µM", "setting": "[2]; pH 7.4, 1 h", "result": "> 99", "unit": "%"},
      {"measurement": "remaining at 6 h, 100 µM", "setting": "[2]; pH 7.4, 6 h", "result": "> 99", "unit": "%"},
      {"measurement": "remaining at 24 h, 100 µM", "setting": "[2]; pH 7.4, 24 h", "result": "> 99", "unit": "%"},
      {"measurement": "remaining at 48 h, 100 µM", "setting": "[2]; pH 7.4, 48 h", "result": "99 ± 1", "unit": "%"},
      {"measurement": "remaining at 10 min, 100 µM", "setting": "[3]; pH 7.4, 10 min", "result": "> 99", "unit": "%"},
      {"measurement": "remaining at 1 h, 100 µM", "setting": "[3]; pH 7.4, 1 h", "result": "> 99", "unit": "%"},
      {"measurement": "remaining at 2 h, 100 µM", "setting": "[3]; pH 7.4, 2 h", "result": "> 99", "unit": "%"},
      {"measurement": "remaining at 6 h, 100 µM", "setting": "[3]; pH 7.4, 6 h", "result": "> 99", "unit": "%"},
      {"measurement": "remaining at 24 h, 100 µM", "setting": "[3]; pH 7.4, 24 h", "result": "> 99", "unit": "%"},
      {"measurement": "remaining at 48 h, 100 µM", "setting": "[3]; pH 7.4, 48 h", "result": "> 99", "unit": "%"}
    ]}
  ]
}
